Measured values from ChEMBL document CHEMBL4507318, “Data for DCP probe BAY-985” (2021).

What was measured:
[1] = molecular target: Tyrosine-protein kinase ABL1 (Homo sapiens) (UniProt P00519)
[2] = molecular target: Serine/threonine-protein kinase PAK 4 (Homo sapiens) (UniProt O96013)
[3] = system: Tyrosine-protein kinase ABL1 (Homo sapiens), P00519 [F317I]
[4] = molecular target: Muscarinic acetylcholine receptor M1 (Homo sapiens) (UniProt P11229); details: Compound concentration 10.0 uM
[5] = molecular target: Serine/threonine-protein kinase N2 (Homo sapiens) (UniProt Q16513)
Sequence of Serine/threonine-protein kinase N2 (Homo sapiens) (Q16513 whole entry, looked up): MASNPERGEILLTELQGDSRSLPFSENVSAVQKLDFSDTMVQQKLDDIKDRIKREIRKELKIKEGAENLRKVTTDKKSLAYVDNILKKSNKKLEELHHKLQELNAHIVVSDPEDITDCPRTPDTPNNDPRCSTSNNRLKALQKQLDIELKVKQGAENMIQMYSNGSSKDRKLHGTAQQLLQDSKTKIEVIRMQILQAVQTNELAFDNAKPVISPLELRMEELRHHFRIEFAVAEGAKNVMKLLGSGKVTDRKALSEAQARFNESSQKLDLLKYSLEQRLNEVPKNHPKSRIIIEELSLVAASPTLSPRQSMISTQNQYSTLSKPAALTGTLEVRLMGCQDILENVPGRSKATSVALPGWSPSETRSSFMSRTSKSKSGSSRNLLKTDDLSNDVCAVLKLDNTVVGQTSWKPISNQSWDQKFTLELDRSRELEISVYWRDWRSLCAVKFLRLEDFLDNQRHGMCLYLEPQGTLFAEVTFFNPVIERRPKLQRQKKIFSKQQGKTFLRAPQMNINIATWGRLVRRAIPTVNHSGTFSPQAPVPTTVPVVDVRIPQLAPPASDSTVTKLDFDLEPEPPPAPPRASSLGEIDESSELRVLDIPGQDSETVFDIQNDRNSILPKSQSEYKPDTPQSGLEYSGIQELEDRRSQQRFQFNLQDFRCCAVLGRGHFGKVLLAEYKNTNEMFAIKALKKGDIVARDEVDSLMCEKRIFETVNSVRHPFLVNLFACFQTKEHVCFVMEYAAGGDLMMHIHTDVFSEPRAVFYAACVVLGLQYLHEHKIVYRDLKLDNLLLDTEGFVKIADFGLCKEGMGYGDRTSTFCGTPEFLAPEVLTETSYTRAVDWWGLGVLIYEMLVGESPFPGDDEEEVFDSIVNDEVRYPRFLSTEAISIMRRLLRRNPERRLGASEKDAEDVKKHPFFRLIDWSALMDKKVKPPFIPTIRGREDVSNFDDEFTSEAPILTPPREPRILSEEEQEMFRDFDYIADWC

[6] = molecular target: 5-hydroxytryptamine receptor 5A (Homo sapiens) (UniProt P47898); details: Compound concentration 10.0 uM
Sequence of 5-hydroxytryptamine receptor 5A (Homo sapiens) (P47898 whole entry): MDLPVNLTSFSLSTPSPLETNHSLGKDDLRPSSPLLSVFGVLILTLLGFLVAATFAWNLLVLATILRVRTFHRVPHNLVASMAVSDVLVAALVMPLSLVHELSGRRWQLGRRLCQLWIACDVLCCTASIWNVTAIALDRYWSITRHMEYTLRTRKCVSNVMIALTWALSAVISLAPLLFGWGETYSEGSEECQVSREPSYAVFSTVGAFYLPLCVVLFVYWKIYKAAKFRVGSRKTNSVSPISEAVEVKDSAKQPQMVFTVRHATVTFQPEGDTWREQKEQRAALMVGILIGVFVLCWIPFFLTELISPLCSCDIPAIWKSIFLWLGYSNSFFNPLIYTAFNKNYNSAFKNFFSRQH

[7] = molecular target: Serine/threonine-protein kinase Chk2 (Homo sapiens) (UniProt O96017)
[8] = molecular target: Non-receptor tyrosine-protein kinase TYK2 (Homo sapiens) (UniProt P29597)
[9] = molecular target: Serine/threonine-protein kinase 33 (Homo sapiens) (UniProt Q9BYT3)
[10] = molecular target: Non-receptor tyrosine-protein kinase TNK1 (Homo sapiens) (UniProt Q13470)
[11] = molecular target: Cyclin-dependent kinase 16 (Homo sapiens) (UniProt Q00536)
[12] = molecular target: Mitogen-activated protein kinase kinase kinase 20 (Homo sapiens) (UniProt Q9NYL2)
[13] = molecular target: Casein kinase I isoform alpha-like (Homo sapiens) (UniProt Q8N752)
[14] = molecular target: Casein kinase I isoform gamma-2 (Homo sapiens) (UniProt P78368)
[15] = molecular target: Beta-adrenergic receptor kinase 1 (Homo sapiens) (UniProt P25098)
[16] = molecular target: Serine/threonine-protein kinase 17B (Homo sapiens) (UniProt O94768)
[17] = molecular target: Cyclin-dependent kinase 4 (Homo sapiens) (UniProt P11802)
[18] = molecular target: Tyrosine-protein kinase Mer (Homo sapiens) (UniProt Q12866)
[19] = molecular target: Dual specificity testis-specific protein kinase 1 (Homo sapiens) (UniProt Q15569)
[20] = molecular target: Ephrin type-A receptor 8 (Homo sapiens) (UniProt P29322)
[21] = molecular target: Cyclin-dependent kinase 11A (Homo sapiens) (UniProt Q9UQ88)
[22] = molecular target: Phosphatidylinositol 5-phosphate 4-kinase type-2 beta (Homo sapiens) (UniProt P78356)
[23] = molecular target: MAP kinase-interacting serine/threonine-protein kinase 2 (Homo sapiens) (UniProt Q9HBH9)
[24] = molecular target: Tyrosine-protein kinase ZAP-70 (Homo sapiens) (UniProt P43403)
Sequence of Tyrosine-protein kinase ZAP-70 (Homo sapiens) (P43403 whole entry): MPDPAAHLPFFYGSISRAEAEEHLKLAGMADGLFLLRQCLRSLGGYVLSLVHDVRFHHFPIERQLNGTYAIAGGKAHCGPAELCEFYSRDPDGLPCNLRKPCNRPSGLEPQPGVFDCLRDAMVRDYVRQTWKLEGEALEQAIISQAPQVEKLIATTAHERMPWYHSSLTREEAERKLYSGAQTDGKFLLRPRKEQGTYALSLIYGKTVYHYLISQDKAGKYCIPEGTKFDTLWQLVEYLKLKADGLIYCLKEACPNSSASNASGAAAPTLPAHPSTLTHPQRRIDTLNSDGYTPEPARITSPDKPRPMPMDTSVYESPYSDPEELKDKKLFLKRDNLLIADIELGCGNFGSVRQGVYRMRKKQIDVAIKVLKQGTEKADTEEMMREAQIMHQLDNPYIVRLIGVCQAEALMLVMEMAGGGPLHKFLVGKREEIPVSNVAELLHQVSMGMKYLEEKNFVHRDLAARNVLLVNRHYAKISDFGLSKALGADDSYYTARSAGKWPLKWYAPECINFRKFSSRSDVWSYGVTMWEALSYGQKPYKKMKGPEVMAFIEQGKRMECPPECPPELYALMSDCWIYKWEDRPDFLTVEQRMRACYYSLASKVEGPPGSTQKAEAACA

[25] = system: Epidermal growth factor receptor (Homo sapiens), P00533 [L858R,T790M]
[26] = molecular target: Serine/threonine-protein kinase RIO1 (Homo sapiens) (UniProt Q9BRS2)
[27] = molecular target: Serine/threonine-protein kinase 38-like (Homo sapiens) (UniProt Q9Y2H1)
Sequence of Serine/threonine-protein kinase 38-like (Homo sapiens) (Q9Y2H1 2-464 limits assumed): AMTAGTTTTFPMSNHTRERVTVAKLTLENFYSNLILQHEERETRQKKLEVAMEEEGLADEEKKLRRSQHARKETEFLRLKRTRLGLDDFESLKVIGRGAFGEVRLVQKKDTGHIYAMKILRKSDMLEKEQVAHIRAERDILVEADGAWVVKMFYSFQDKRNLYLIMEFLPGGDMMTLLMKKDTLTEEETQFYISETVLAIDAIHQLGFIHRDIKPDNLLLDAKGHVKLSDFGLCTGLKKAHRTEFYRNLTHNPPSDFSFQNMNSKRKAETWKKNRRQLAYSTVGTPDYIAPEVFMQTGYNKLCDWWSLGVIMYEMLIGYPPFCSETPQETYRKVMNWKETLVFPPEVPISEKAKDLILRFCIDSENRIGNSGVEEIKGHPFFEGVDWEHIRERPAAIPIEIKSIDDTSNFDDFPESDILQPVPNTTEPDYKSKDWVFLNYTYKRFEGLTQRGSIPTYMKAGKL

[28] = molecular target: Tyrosine-protein kinase CSK (Homo sapiens) (UniProt P41240)
[29] = molecular target: Ribosomal protein S6 kinase alpha-2 (Homo sapiens) (UniProt Q15349)
Sequence of Ribosomal protein S6 kinase alpha-2 (Homo sapiens) (Q15349 whole entry): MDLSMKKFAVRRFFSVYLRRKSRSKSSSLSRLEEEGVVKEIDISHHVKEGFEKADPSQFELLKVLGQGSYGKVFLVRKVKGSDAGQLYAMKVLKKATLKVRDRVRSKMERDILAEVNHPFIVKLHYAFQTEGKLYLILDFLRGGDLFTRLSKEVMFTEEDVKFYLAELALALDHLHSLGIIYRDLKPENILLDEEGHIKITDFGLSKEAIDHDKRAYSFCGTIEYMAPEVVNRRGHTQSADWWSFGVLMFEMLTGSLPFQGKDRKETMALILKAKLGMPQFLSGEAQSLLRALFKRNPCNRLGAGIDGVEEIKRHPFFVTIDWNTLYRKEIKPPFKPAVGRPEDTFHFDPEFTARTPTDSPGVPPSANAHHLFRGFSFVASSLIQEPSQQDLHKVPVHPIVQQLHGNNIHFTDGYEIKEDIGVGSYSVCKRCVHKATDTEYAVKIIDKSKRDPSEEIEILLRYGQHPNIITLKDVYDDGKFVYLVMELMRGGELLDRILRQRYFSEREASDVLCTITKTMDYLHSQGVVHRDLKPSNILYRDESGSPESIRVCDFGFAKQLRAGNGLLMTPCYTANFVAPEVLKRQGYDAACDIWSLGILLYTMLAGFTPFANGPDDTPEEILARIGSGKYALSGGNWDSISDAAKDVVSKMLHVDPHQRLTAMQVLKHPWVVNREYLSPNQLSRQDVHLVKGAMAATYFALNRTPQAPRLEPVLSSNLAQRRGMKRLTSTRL

[30] = molecular target: Dual specificity tyrosine-phosphorylation-regulated kinase 1A (Homo sapiens) (UniProt Q13627)
[31] = system: Proto-oncogene tyrosine-protein kinase receptor Ret (Homo sapiens), P07949 [V804M]
Sequence of Proto-oncogene tyrosine-protein kinase receptor Ret (Homo sapiens), P07949 [V804M] (P07949 whole entry V804M, the tested form may be a part): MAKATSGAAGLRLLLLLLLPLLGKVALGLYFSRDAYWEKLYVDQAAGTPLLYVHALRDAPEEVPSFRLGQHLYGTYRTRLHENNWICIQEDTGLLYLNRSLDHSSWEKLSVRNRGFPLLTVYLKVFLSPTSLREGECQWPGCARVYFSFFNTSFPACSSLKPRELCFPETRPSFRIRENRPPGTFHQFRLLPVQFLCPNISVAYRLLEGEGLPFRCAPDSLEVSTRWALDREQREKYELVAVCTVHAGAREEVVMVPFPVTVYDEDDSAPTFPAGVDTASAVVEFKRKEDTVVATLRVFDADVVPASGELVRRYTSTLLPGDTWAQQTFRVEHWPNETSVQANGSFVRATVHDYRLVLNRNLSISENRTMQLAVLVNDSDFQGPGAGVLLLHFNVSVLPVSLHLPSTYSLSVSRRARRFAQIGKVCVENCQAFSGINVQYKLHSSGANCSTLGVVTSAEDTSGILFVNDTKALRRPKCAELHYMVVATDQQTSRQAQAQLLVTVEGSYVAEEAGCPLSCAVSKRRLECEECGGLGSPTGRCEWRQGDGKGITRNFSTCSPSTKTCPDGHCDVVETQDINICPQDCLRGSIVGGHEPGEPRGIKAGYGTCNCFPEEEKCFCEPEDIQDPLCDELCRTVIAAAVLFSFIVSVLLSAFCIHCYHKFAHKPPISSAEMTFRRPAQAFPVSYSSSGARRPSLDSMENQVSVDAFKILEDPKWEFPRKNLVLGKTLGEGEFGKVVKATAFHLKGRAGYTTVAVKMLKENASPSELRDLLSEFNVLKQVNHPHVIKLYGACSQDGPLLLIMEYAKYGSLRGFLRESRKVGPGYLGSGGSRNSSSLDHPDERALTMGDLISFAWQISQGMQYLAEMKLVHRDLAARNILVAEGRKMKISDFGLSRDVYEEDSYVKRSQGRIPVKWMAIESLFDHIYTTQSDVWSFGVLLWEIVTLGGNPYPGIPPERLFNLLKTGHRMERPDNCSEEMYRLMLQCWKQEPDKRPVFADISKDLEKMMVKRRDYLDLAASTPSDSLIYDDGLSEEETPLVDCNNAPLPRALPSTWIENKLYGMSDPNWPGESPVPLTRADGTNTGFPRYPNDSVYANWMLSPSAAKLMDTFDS

[32] = molecular target: LIM domain kinase 1 (Homo sapiens) (UniProt P53667)
Sequence of LIM domain kinase 1 (Homo sapiens) (P53667 whole entry, looked up, the tested form may be a part): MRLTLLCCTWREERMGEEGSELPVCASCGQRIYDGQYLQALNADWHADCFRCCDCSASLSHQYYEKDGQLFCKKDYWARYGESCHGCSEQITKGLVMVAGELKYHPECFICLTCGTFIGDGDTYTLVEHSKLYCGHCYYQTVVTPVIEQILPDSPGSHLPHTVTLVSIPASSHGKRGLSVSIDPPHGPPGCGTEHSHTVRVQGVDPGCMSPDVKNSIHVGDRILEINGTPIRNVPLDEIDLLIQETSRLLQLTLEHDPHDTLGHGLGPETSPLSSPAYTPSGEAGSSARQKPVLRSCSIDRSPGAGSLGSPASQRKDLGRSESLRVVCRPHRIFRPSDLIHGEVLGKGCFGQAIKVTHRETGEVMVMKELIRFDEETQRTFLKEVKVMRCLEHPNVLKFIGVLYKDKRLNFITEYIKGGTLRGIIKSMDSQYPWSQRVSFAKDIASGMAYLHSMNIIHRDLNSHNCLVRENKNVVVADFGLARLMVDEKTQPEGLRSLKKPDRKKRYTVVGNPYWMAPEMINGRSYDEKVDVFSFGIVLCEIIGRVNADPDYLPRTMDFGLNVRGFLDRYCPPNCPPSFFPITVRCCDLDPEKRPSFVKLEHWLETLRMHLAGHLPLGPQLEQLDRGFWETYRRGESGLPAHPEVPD

[33] = molecular target: Tyrosine-protein kinase JAK2 (Homo sapiens) (UniProt O60674)
[34] = system: Tyrosine-protein kinase ABL1 (Homo sapiens), P00519 [T315I]
[35] = molecular target: G protein-coupled receptor kinase 4 (Homo sapiens) (UniProt P32298)
[36] = molecular target: Inhibitor of nuclear factor kappa-B kinase subunit epsilon (Homo sapiens) (UniProt Q14164)
[37] = molecular target: Mitogen-activated protein kinase kinase kinase kinase 1 (Homo sapiens) (UniProt Q92918)
[38] = molecular target: Mitogen-activated protein kinase kinase kinase 9 (Homo sapiens) (UniProt P80192)
[39] = molecular target: Receptor tyrosine-protein kinase erbB-2 (Homo sapiens) (UniProt P04626)
[40] = molecular target: Serine/threonine-protein kinase Nek1 (Homo sapiens) (UniProt Q96PY6)
[41] = molecular target: Phosphatidylinositol 4,5-bisphosphate 3-kinase catalytic subunit delta isoform (Homo sapiens) (UniProt O00329)
[42] = molecular target: Mitogen-activated protein kinase kinase kinase 12 (Homo sapiens) (UniProt Q12852)
[43] = molecular target: Serine/threonine-protein kinase 26 (Homo sapiens) (UniProt Q9P289)
[44] = molecular target: Bone morphogenetic protein receptor type-2 (Homo sapiens) (UniProt Q13873)
[45] = molecular target: Beta-1 adrenergic receptor (Homo sapiens) (UniProt P08588); details: Compound concentration 10.0 uM
[46] = Compound concentration 1000.0 nM
[47] = Compound concentration 100.0 nM

CN(C)c1ncnc(-c2ccc3nc(Nc4cc(CN5CCN(C(=O)CC(F)(F)F)CC5)ccn4)[nH]c3c2)c1Cl [BAY-440]
residual activity [1, 46]: 26%
residual activity [2, 46]: 100%
residual activity [3, 46]: 28%
inhibition [4]: 32.1%
residual activity [5, 46]: 85%
inhibition [6]: 23.6%
residual activity [7, 46]: 100%
residual activity [8, 46]: 51%
residual activity [9, 46]: 100%
residual activity [10, 46]: 96%
residual activity [11, 46]: 74%
residual activity [12, 46]: 65%
residual activity [13, 46]: 94%
residual activity [14, 46]: 100%
residual activity [15, 46]: 57%
residual activity [16, 46]: 52%
residual activity [17, 46]: 69%
residual activity [18, 46]: 87%
residual activity [19, 46]: 78%
residual activity [20, 46]: 100%
residual activity [21, 46]: 100%
residual activity [22, 46]: 52%
residual activity [23, 46]: 37%
residual activity [24, 46]: 100%
residual activity [25, 46]: 82%
residual activity [26, 46]: 100%
residual activity [27, 46]: 74%
residual activity [28, 46]: 84%
residual activity [29, 46]: 100%
residual activity [30, 46]: 77%
residual activity [31, 46]: 93%
residual activity [32, 46]: 100%
residual activity [33, 46]: 44%
residual activity [34, 46]: 51%
residual activity [35, 46]: 100%
residual activity [36, 46]: 13%
residual activity [37, 46]: 91%
residual activity [38, 46]: 90%
residual activity [39, 46]: 87%
residual activity [40, 46]: 88%
residual activity [41, 46]: 67%
residual activity [42, 46]: 64%
residual activity [43, 46]: 91%
residual activity [44, 46]: 61%
inhibition [45]: -6.2%

C[C@H](c1ccnc(Nc2nc3ccc(-c4cc(N(C)C)ncn4)cc3[nH]2)c1)N1CCN(C(=O)CC(F)(F)F)CC1 [BAY-985]
residual activity [1, 47]: 89%
residual activity [2, 47]: 81%
residual activity [3, 47]: 100%
inhibition [4]: 15.1%
residual activity [5, 47]: 95%
inhibition [6]: 11.9%
residual activity [7, 47]: 84%
residual activity [8, 47]: 100%
residual activity [9, 47]: 100%
residual activity [10, 47]: 100%
residual activity [11, 47]: 100%
residual activity [12, 47]: 98%
residual activity [13, 47]: 94%
residual activity [14, 47]: 96%
residual activity [15, 47]: 100%
residual activity [16, 47]: 100%
residual activity [17, 47]: 100%
residual activity [18, 47]: 97%
residual activity [19, 47]: 98%
residual activity [20, 47]: 100%
residual activity [21, 47]: 84%
residual activity [22, 47]: 75%
residual activity [23, 47]: 86%
residual activity [24, 47]: 100%
residual activity [25, 47]: 100%
residual activity [26, 47]: 100%
residual activity [27, 47]: 65%
residual activity [28, 47]: 100%
residual activity [29, 47]: 98%
residual activity [30, 47]: 98%
residual activity [31, 47]: 76%
residual activity [32, 47]: 100%
residual activity [33, 47]: 100%
residual activity [34, 47]: 89%
residual activity [35, 47]: 100%
residual activity [36, 47]: 9.9%
residual activity [37, 47]: 51%
residual activity [38, 47]: 100%
residual activity [39, 47]: 100%
residual activity [40, 47]: 93%
residual activity [41, 47]: 100%
residual activity [42, 47]: 100%
residual activity [43, 47]: 100%
residual activity [44, 47]: 100%
inhibition [45]: 24.3%
